Literature values, collected in patent US8828453B2, “Herbal-based compositions for alleviating symptoms associated with autism” (priority 2010, dated 2014).

Tested on: newborn murine brain

CCCCC/C=C\C/C=C\C/C=C\C/C=C\CCCC(=O)NCCO [anandamide]
protection against excitotoxic damage: protected the newborn murine brain against excitotoxic damage
